Converted amounts (≈) assume the structure as drawn. Like-named read-outs stand apart in the source and are kept apart here.
Key:
[1] = tested on: mESC-D3; design: method as in Scholz et al. [1999]; settings: ZEBET value, 7 d result; ref Scholz et al. [1999]; cited from earlier work
[2] = tested on: NIH/3T3; design: method as in Scholz et al. [1999]; settings: ZEBET value, 7 d result; ref Scholz et al. [1999]; cited from earlier work
[3] = tested on: mESC-D3; assay: Automated mESC-D3 differentiation assay in 96-well round-bottom ultra-low attachment plates (cardiomyocyte contraction, day 10); type: cell-based, mouse; settings: beating cardiomyocytes at day 10, in brackets the two independent runs
Description: The mESC-D3 differentiation assay was automated in 96-well round-bottom ultra-low attachment plates (Costar, Cat. No. 7007) on the lab automation platform Fluent (Tecan). The method was set up for testing up to three different compounds in an automated procedure, resulting in maximal 9 plates that were being processed. A 7-point dilution series of test compounds and control solutions were prepared in PBS or DMSO under the laminar flow, transferred to a 96-well 0.5 ml Masterblock plate, and placed on the Fluent worktable. There the compounds were further diluted in growth media in a 96-well 2 ml Masterblock plate using the FCA. Of the compound solution, 10 μl/well were dispensed into a 96-well round well ultra-low attachment plate. In the meantime, a suspension of mESC-D3 (3.75 × 10^4 cells/ ml) was prepared in growth media and was placed in a trough on the worktable. The cell suspension was transferred into the 96-well round-bottom ultra-low attachment plate (40 μl/well) using the FCA. After 2 days of incubation at 37 °C, 5% CO2, and 95% humidity fresh compound and control solutions were prepared and added to the 96-well U-bottom plate (200 μl/well). On day five of the assay freshly prepared compound and control solutions were dispensed into a 96-well imaging plate (200 μl/well, Greiner bio-one, Cat. No. 655866). Using the MCA, the supernatant was aspirated from the 96-well round-bottom ultra-low attachment plate, the EB at the bottom of the well was aspirated and transferred into the prefilled imaging plate. On day 7, the cell supernatant was partially replaced with a fresh compound solution. Therefore, the media was aspirated using the MCA and the fresh compound solution was dispensed with the FCA. After further 3 days of incubation (= day 10 of the assay) cardiomyocyte contraction was determined in each well under the light microscope. Afterward, cells were stained and analyzed using the Opera High Content Screening System (PerkinElmer).
Toxicity data from the MTT and CellTiter-Glo Assay was normalized against the vehicle control (100% viability) and plotted against the logarithmic compound concentration.

[4] = tested on: mESC-D3 and NIH/3T3 cells; settings: for Compound classification (Seiler and Spielmann [2011]): automated mouse EST assay; for Compound classification: manual murine EST assay, prediction model of Seiler and Spielmann 2011
[5] = tested on: mESC-D3; assay: Conventional mouse ES-D3 differentiation assay in hanging drop format (petri dish; cardiomyocyte contraction, day 10); type: cell-based; settings: manual; beating cardiomyocytes at day 10; in brackets the two individual experiments
Description: Separate Petri dishes were used for each concentration of test compound, untreated control, and solvent control. […] The EB suspension was incubated for 2 days. On day five of the assay, a fresh compound dilution series was prepared in media and transferred into 24-well cell culture plates (1 ml/well, Greiner bio-one, Cat. No. 662641). A separate 24-well plate was used for each compound concentration, untreated control, and solvent control (24 wells per condition). One EB was transferred from the Petri dish into each well of the 24-well plate. After further 5 days of incubation (= day 10 of the assay), cardiomyocyte contraction was determined in each well under the light microscope.

[6] = tested on: mESC-D3; type: cell-based, mouse; settings: for ID50 FACS (MHC-positive cells): flow cytometry, day 7
Description: As an alternative to the morphological analysis at day 10, differentiation can be analyzed at day 7 of the assay by flow cytometry using the molecular flow EST (Buesen et al. [2009]). Previously, staining of cardiomyocytes was performed using an unconjugated primary monoclonal antibody directed against the sarcomeric MHC (clone MF20), followed by binding of a secondary biotin-conjugated goat anti-mouse IgG antibody which is then detected with the fluorochrome PE-SA (phycoerythrin-conjugated streptavidin) (Seiler and Spielmann [2011]). […] Of note, these experiments were performed in parallel with the same batch of spontaneously differentiated mESCs.
Embryoid bodies were formed in hanging drops (Petri dish) as already described. On day 5 of the assay, the EBs were transferred into a larger Petri dish and incubated for two more days at 37 °C, 5% CO2, and 95% humidity. Afterward, the EBs were dissociated using the Embryoid Body Dissociation Kit (Miltenyi Biotec, Cat. No. 130-096-348). EBs from two Petri dishes were harvested in one 15 ml tube and washed once with 10 ml PBS. The supernatant was discarded after centrifugation and a pre-warmed enzyme mix was added. The EB/enzyme mix was incubated for 10 min at 37 °C, dissociated for 1 min with a 1000 μl pipette, incubated for 5 min and mechanically dissociated again for 1 min. After the addition of 3 ml PBS, the cell suspension was passed through a 70-μm filter into a new 15-ml tube. The filter was then washed with 3 ml PBS and discarded afterward. The cell suspension was centrifuged for 5 min at 300 rpm. The supernatant was discarded afterward, cells were suspended in PBS and counted. For viability staining, 10^6 cells were suspended in 100 μl staining reagent (LIVE/DEAD™ Fixable Green Dead Stain Kit, Life Technologies, Cat. No. L34969), incubated for 30 min at 4 °C and washed with 1 ml PBS. For fixation, cells were suspended in 100 μl fixation buffer (BioLegend, Cat. No. 420801) and incubated 20 min at room temperature. For the intracellular staining, cells were washed twice with 1 ml permeabilization buffer (BioLegend, Cat. No. 421002) and suspended in 50 μl permeabilization buffer supplemented with 50 μl of pre-diluted (1:5) antibody (mouse IgG2B anti-human Myosin Heavy Chain APC-conjugated, mouse IgG2B APC-conjugated isotype control, R&D Systems, Cat. No. IC4470A). After 1 h incubation at room temperature cells were washed twice with 1 ml permeabilization buffer and suspended in FACS buffer. Within 2–3 h samples were measured on an LSR II flow cytometer (Beckton Dickinson). Data analysis was done using FlowJo software (Version 10.0.8; Tree Star).

[7] = tested on: mESC-D3; design: method as in Scholz et al. [1999]; settings: ZEBET value printed beside hanging drop differentiation result; ref Scholz et al. [1999]; cited from earlier work

Row | Compound | IC50 mESC-D3 (ZEBET) [1] | IC50 NIH/3T3 (ZEBET) [2] | Differentiation assay in round bottom ULA microplate ID50 mESC-D3 [3] | Differentiation assay in round bottom ULA microplate ID50 mESC-D3 ([3]; listed as hydroxyurea) | Compound classification (Seiler and Spielmann [2011]) [4] | Compound classification [4] | Differentiation assay in hanging drop (petri dish) ID50 mESC-D3 [5] | ID50 FACS (MHC-positive cells) [6] | MHC-positive cells ([6]; treated with 10 μg/ml, untreated 31% (hydroxyurea), 26% (fumonisine B1)) | ID50 mESC-D3 (ZEBET) [7] | Differentiation assay in round bottom ULA microplate ID50 mESC-D3 ([3]; listed as saccharin) | MHC-positive cells ([6]; treated with 1000 μg/ml, untreated 25%)
1 | NC(=O)NO [Hydroxyurea, hydroxyurea] | 2.0 µg/mL (≈ 26.3 µM) | 7.2 µg/mL (≈ 94.7 µM) | 2.69 (2.86; 2.52) μg/ml | 2.69 µg/mL | Strong embryotoxicity | strong embryotoxicity | 2.55 (2.56; 2.54) µg/ml | 5.65 µg/mL (≈ 74.3 µM) | 4% | 1.7 µg/mL (≈ 22.4 µM) |  | 
2 | O=C1NS(=O)(=O)c2ccccc21 [Saccharin, saccharin] | 3498 µg/mL (≈ 19100 µM) | 3000 µg/mL (≈ 16400 µM) | > 1000 (> 1000; > 1000) μg/ml |  | No embryotoxicity | no embryotoxicity | 1000 (> 1000; > 1000) µg/ml | > 1000 µg/mL |  | 2000 µg/mL (≈ 10900 µM) | > 1000 µg/mL | 19%
